Assay [1] has as its system cTnI-G203S mutant myocytes. The experiment in a line: Mitochondrial membrane potential (JC-1) response to BayK(−), cTnI-G203S myocytes (Example 10). Format: cell-based, mouse. The method, then:
In this experiment wt myocytes were pre-exposed to 0.1, 0.5 or 1 μM for 20 min and assessed changes in flavoprotein oxidation and ψm.
Measurement of mitochondrial membrane potential: The fluorescent indicator 5,5′,6,6′-tetrachloro1,1′,3,3′-tetraethylbenzimidazolylcarbocyanine iodide (JC-1) was used to measure mitochondrial membrane potential (ψm) as previously described (Viola H M, Arthur P G, Hool L C. Transient exposure to hydrogen peroxide causes an increase in mitochondria-derived superoxide as a result of sustained alteration in L-type Ca2+ channel function in the absence of apoptosis in ventricular myocytes. Circ Res. 2007; 100(7):1036-44). […] Images were acquired at 2 min intervals with 50 ms exposure. Metamorph 6.3 (Version 7.10.3) was used to quantify the signal by manually tracing myocytes. An equivalent region not containing cells was used as background and was subtracted. The 580 nm/535 nm ratiometric fluorescence values recorded over 6 min before and 4 min after addition of drugs were averaged and alterations in fluorescent ratios reported as the percentage increase from the basal average. To confirm that the signal was indicative of ψm, 40 mM NaCN was added at the end of each experiment to collapse ψm. In addition, individual 580 and 535 signals were assessed in each experiment to determine whether the fluorescent indicator was accurately measuring ψm. For calcium-free experiments, cells were exposed to calcium-free HBS (supplemented with 3 mM EGTA and 200 nM JC-1) for at least 3 h prior to measuring changes in ψm.
Based on results obtained from in vitro assessment of flavoprotein oxidation, the effect of 0.5 μM AID-TAT variants on changes in mitochondrial membrane potential (ψm) was further explored. Experiments were performed using JC-1 fluorescence under calcium-free conditions as previously described (Viola H, Johnstone V, Cserne Szappanos H, Richman T, Tsoutsman T, Filipovska A, et al. The L-type Ca(2+) channel facilitates abnormal metabolic activity in the cTnI-G2035 mouse model of hypertrophic cardiomyopathy. J Physiol. 2016; 594(14):4051-70; Viola H M, Shah A A, Johnstone V P A, Cserne Szappanos H, Hodson M P, Hool L C. Characterization and validation of a preventative therapy for hypertrophic cardiomyopathy in a murine model of the disease. Proc Natl Acad Sci U S A. 2020; 117(37):23113-24). […] FIG. 11 presents the mean+/−SE of JC-1 fluorescence from cTnI.2 wt and cTnI-G203S mutant myocytes before and after exposure to 10 μM BayK(−) in the presence of 1 μM AID(S)-TAT, and 0.5 μM of variant peptides as indicated. N=no. of animals, n=no. of cardiomyocytes. P values shown compared with AID(S)-TAT as determined by the Kruskal-Wallis test.

In the next assay the test system is cTnI-G203S mice. The experiment in a line: Myocardial fibrosis, Masson's Trichrome collagen volume fraction. As to conditions: 5 μM, 3×/wk/5 wk from 20 weeks of age; versus cTnI-G203S AID(S)-TAT; FIG. 14. Format: in vivo, mouse. The source says:
Following completion of treatment regimes, mouse hearts were extracted and prepared for Masson's Trichchrome staining based on previously described methods with minor modifications (Van De Vlekkert D, Machado E, d'Azzo A. Analysis of Generalized Fibrosis in Mouse Tissue Sections with Masson's Trichrome Staining. Bio Protoc. 2020; 10(10):e3629). Hearts were washed in PBS and fixed overnight in 10% buffered formalin saline (FSAL-5L; Hurst Scientific, AUS). After fixation, hearts were washed 3×10 min in PBS and incubated overnight in 30% sucrose solution (in PBS). […]
To observe the levels of cardiac fibrosis in mice, a minimum of 15 sections of microscopic fields for each animal were selected randomly for histological analysis. Images of heart sections were obtained using a Nikon upright light microscope (DS-Qi2, Japan) at 20× magnification and analysed using ImageJ (NIH). […]
Here we assessed the efficacy of treating 20-week-old pre-hypertrophic cTnI-G203S mice with 5 μM AID-TAT variant peptides (3×/wk/5 wk) on the development and progression of fibrosis. […] Images were acquired using a Nikon Upright Microscope and collagen volume fraction (%) was determined using ImageJ colour thresholding. […] Values reported as mean±SEM; P values compared with cTnI-G203S AID(S)-TAT as determined by the Kruskal-Wallis test.

On to “AIDP7-TAT: QQQEEDLKGYLDWITQAE with TAT sequence”, for which the “BayK(−) induced increase in ψm (JC-1 fluorescence)” value in assay [1] (0.5 μM peptide, calcium-free, FIG. 11B) is given as “significantly attenuated the response”. In assay [1] (flavoprotein oxidation and JC-1 data together), the “normalising mitochondrial metabolic activity (in vitro, overall)” value is on record as “most effective in normalising mitochondrial metabolic activity”. Further, in the assay with cTnI-G203S mice, the “left ventricular posterior wall collagen volume fraction (CVF, %)” value is listed as “significantly decreased”.
